Measured values from patent US9408842B2, “Substituted pyrano and furanoquinolines, their preparation and use as medicaments” (LABORATORIOS DEL DR. ESTEVE S.A., priority 2012, dated 2016).
Counter-ions that a name gives are not always drawn.

Biological target: T1, σ1-receptor (Cavia porcellus, UniProt Q60492)
T1 construct: Guinea pig brains were homogenized in 10 vols; (w/v) of Tris-HCl 50 mM 0.32 M sucrose, pH 7.4; from tissue; host or cells: guinea pig brain membranes
Experiment: binding assay for the σ1-receptor, [3H]-(+)-pentazocine, brain membranes
Conditions: guinea pig brain membranes; radioligand [3H]-(+)-pentazocine 5.0 nM; 150 min at 37° C.; nonspecific binding with 1 μM haloperidol
Experimental: Guinea pig brains were homogenized in 10 vols. (w/v) of Tris-HCl 50 mM 0.32 M sucrose, pH 7.4, with a Kinematica Polytron PT 3000 at 15000 r.p.m. for 30 s. The homogenate was centrifuged at 1000 g for 10 min at 4° C. and the supernatants collected and centrifuged again at 48000 g for 15 min at 4° C. The pellet was resuspended in 10 volumes of Tris-HCl buffer (50 mM, pH 7.4), incubated at 37° C. for 30 min, and centrifuged at 48000 g for 20 min at 4° C. Following this, the pellet was re-suspended in fresh Tris-HCl buffer (50 mM, pH 7.4) and stored on ice until use.
The radioligand used was [^3H]-(+)-pentazocine at 5.0 nM and the final volume was 200 μl. The incubation was initiated with the addition of 100 μl of membrane at a final tissue concentration of approximately 5 mg tissue net weight/mL and the incubation time was 150 m. at 37° C. After incubation, the membranes were collected onto pretreated glass fiber filterplate (MultiScreen-FC, Millipore), with polyethylenimine 0.1%. The filters were washed two times with 200 μl of washing buffer (50 mM Tris Cl, pH=7.4) and then 25 μl of Ecoscint H liquid scintillation cocktail were added. […] Nonspecific binding was determined with 1 μM haloperidol.

T1 sequence (Q60492 whole entry): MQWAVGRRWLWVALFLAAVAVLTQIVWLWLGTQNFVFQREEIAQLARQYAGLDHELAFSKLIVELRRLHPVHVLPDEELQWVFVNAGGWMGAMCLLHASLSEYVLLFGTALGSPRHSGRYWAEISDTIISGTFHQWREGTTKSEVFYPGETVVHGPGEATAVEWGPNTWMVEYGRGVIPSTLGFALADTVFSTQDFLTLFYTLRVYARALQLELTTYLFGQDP

Work on `Clc1ccc(Oc2ccc3c(c2)[C@H]2OCC[C@H]2[C@@H](C2CCCCC2)N3)cc1Cl` (racemic) [Example 92, (3aSR*,4RS*,9bSR*)-4-cyclohexyl-8-(3,4-dichlorophenoxy)-2,3,3a,4,5,9b-hexahydrofuro[3,2-c]quinoline hydrochloride] yielded a Ki of 0.11 µM.

`Clc1ccc(Oc2ccc3c(c2)[C@H]2OCCC[C@H]2[C@@H](C2CCCCC2)N3)cc1Cl` (racemic) [Example 93, (4aSR*,5RS*,10bSR*)-5-cyclohexyl-9-(3,4-dichlorophenoxy)-3,4,4a,5,6,10b-hexahydro-2H-pyrano[3,2-c]quinoline hydrochloride] showed a Ki of 0.0793 µM.
